Measurements reported in US20210347709A1, “RADIOFLUORINATED GPC3-BINDING PEPTIDES FOR PET IMAGING OF HEPATOCELLULAR CARCINOMA” (University of Southern California, priority 2020, published 2021).
Where two headings read alike, the source gives them in different places.

Legend:
HepG2 tumor = test: Ex vivo biodistribution in HepG2 tumor bearing nude mice; conditions: 1 h post-injection, gamma counting
Description: (§1) All animal experiments were conducted according to the guideline of the Nanfang Hospital Animal Ethics Committee at the Southern Medical University. Male or female BALB/c nude mice (about 4-6 weeks old) were obtained from the Laboratory Animal Center at Southern Medical University. The HepG2 and McA-RH7777 HCC xenografts were established by subcutaneous injection of 1×10^6 tumor cells into the left shoulder of nude mice. The animals were used for in vivo studies when the tumors reached a size of 0.5-1 cm in diameter (4-6 weeks after inoculation).
(§2) Ex vivo biodistribution was evaluated at 60 min after the tail vein injection of 1.85 MBq of Al[^18F]F-GP2076 or Al[^18F]F-GP2633. Mice were euthanized and dissected. Major tissues and organs were collected and weighed wet. The radioactivity in the tissues and organs was measured using a gamma counter. The results were presented as % ID/g. For each animal, the radioactivity of the tissue and organ samples was calibrated with a known aliquot of the injected activity. Mean uptake (% ID/g) for a group of animals was calculated with standard deviations.

[1] = as above; conditions: both sexes, BALB/c nude, mouse, iv, 1.85 MBq, total radioactivity, 1 h post-injection, gamma counting
Description: as §1, §2

In the case of `CC(C)C[C@H](NC(=O)[C@H](CCCNC(=N)N)NC(=S)Nc1ccc(CC2CN(CC(=O)O)CCN(CC(=O)O)CCN2CC(=O)O)cc1)C(=O)N[C@@H](CC(N)=O)C(=O)N[C@H](C(=O)NCC(=O)NCC(=O)N[C@H](C(=O)N[C@@H](Cc1ccc(O)cc1)C(=O)N[C@@H](Cc1ccccc1)C(=O)N[C@@H](CC(C)C)C(=O)N[C@H](C(=O)N[C@H](C(=O)N[C@@H](CCCNC(=N)N)C(=O)N[C@@H](CCC(N)=O)C(=O)O)[C@@H](C)O)[C@@H](C)O)[C@@H](C)O)C(C)C` (single isomer, unassigned) [Al[^18F]F-GP2076], the “HepG2 Tumor uptake, ex vivo biodistribution” value (HepG2 tumor) is reported as 1.13±0.02 % ID/g, the “Liver uptake, ex vivo biodistribution” value (HepG2 tumor) is reported as 2.30±0.56 % ID/g and the tissue uptake at 1 h ([1]; HepG2 tumor, read-out: HepG2 Tumor uptake, ex vivo biodistribution) is reported as 1.13 ± 0.02 %ID/g. It also gave a tissue uptake at 1 h ([1]; blood, read-out: Blood uptake, ex vivo biodistribution) of 0.36 ± 0.17 %ID/g, a tissue uptake at 1 h ([1]; bone, read-out: Bone uptake, ex vivo biodistribution) of 0.29 ± 0.13 %ID/g and a tissue uptake at 1 h ([1]; brain, read-out: Brain uptake, ex vivo biodistribution) of 0.1 ± 0.1 %ID/g. The tissue uptake at 1 h ([1]; heart, read-out: Heart uptake, ex vivo biodistribution) was 0.36 ± 0.15 %ID/g, the tissue uptake at 1 h ([1]; kidneys, read-out: Kidneys uptake, ex vivo biodistribution) was 6.37 ± 1.45 %ID/g and the tissue uptake at 1 h ([1]; liver, read-out: Liver uptake, ex vivo biodistribution) was 2.3 ± 0.56 %ID/g. The tissue uptake at 1 h ([1]; muscle, read-out: Muscle uptake, ex vivo biodistribution) was 0.24 ± 0.07 %ID/g.
